pIC50: −log10 of the molar value.
System: NCI-H719 tumor spheroids, viability
Experiment: Anticancer human tumor NCI-H719 cell line growth inhibition;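 further: spheroids exposed to compounds for seven days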;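 on viability, T/C: percent viability relative to DMSO vehicle control as 100%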
Conditions: spheroids with HUVEC and MSC; for pIC50: curve of first compound; for viability, T/C: stronger effect = lower value
Method in brief: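 Complex tumor spheroids combined malignant cells with endothelial cells and mesenchymal stem cells. DNA-damaging drugs and DNA repair inhibitors were tested alone and in combination, at half-log dilutions down from clinical Cmax (top 10 microM if Cmax unknown), 0.25% DMSO final.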

[1] = second compound 30 pM, first compound 0.0316 µM
[2] = second compound 30 pM, first compound 0.1 µM
[3] = second compound 30 pM, first compound 0.316 µM
[4] = second compound 30 pM, first compound 1 µM
[5] = second compound 30 pM, first compound 3.16 µM
[6] = second compound 30 pM, first compound 10 µM
[7] = second compound 94.9 pM, first compound 0.0316 µM
[8] = second compound 94.9 pM, first compound 0.1 µM
[9] = second compound 94.9 pM, first compound 0.316 µM
[10] = second compound 94.9 pM, first compound 1 µM
[11] = second compound 94.9 pM, first compound 3.16 µM
[12] = second compound 94.9 pM, first compound 10 µM
[13] = second compound 0.0003 µM, first compound 0.0316 µM
[14] = second compound 0.0003 µM, first compound 0.1 µM
[15] = second compound 0.0003 µM, first compound 0.316 µM
[16] = second compound 0.0003 µM, first compound 1 µM
[17] = second compound 0.0003 µM, first compound 3.16 µM
[18] = second compound 0.0003 µM, first compound 10 µM
[19] = second compound 0.000949 µM, first compound 0.0316 µM
[20] = second compound 0.000949 µM, first compound 0.1 µM
[21] = second compound 0.000949 µM, first compound 0.316 µM
[22] = second compound 0.000949 µM, first compound 1 µM
[23] = second compound 0.000949 µM, first compound 3.16 µM
[24] = second compound 0.000949 µM, first compound 10 µM
[25] = second compound 0.003 µM, first compound 0.0316 µM
[26] = second compound 0.003 µM, first compound 0.1 µM
[27] = second compound 0.003 µM, first compound 0.316 µM
[28] = second compound 0.003 µM, first compound 1 µM
[29] = second compound 0.003 µM, first compound 3.16 µM
[30] = second compound 0.003 µM, first compound 10 µM

SMILES | pIC50 (second compound 30 pM) | pIC50 (second compound 94.9 pM) | pIC50 (second compound 0.0003 µM) | pIC50 (second compound 0.000949 µM) | pIC50 (second compound 0.003 µM) | viability, T/C [1] | viability, T/C [2] | viability, T/C [3] | viability, T/C [4] | viability, T/C [5] | viability, T/C [6] | viability, T/C [7] | viability, T/C [8] | viability, T/C [9] | viability, T/C [10] | viability, T/C [11] | viability, T/C [12] | viability, T/C [13] | viability, T/C [14] | viability, T/C [15] | also measured
CC1COCCN1c1cc(-c2ccnn2C)c2ccnc(-c3ccn[nH]3)c2n1 (stereo not given) + COc1cc2c(cc1O)CCNC21CSC2c3c(OC(C)=O)c(C)c4c(c3C(COC1=O)N1C(O)C3Cc5cc(C)c(OC)c(O)c5C(C21)N3C)OCO4 | > 7.50 | > 7.50 | > 7.50 | > 7.50 | > 7.50 | 29% | 19.2% | 16.2% | 9.83% | 8.37% | 11% | 13.6% | 7.91% | 7.75% | 7.08% | 6.07% | 10.4% | 7.42% | 7.97% | 6.18% | viability, T/C [16]: 5.64%; viability, T/C [17]: 6.36%; viability, T/C [18]: 9.31%; viability, T/C [19]: 7.59%; viability, T/C [20]: 7.35%; viability, T/C [21]: 6.11%; viability, T/C [22]: 3.98%; viability, T/C [23]: 3.9%; viability, T/C [24]: 3.4%; viability, T/C [25]: 0.28%; viability, T/C [26]: 0.46%; viability, T/C [27]: 0.86%; viability, T/C [28]: 1.82%; viability, T/C [29]: 0.25%; viability, T/C [30]: 0.52%
COc1cc(C)[nH]c(=O)c1CN1CCc2c(Cl)cc(C(OC)C3COC3)c(Cl)c2C1=O (stereo not given) + COc1cc2c(cc1O)CCNC21CSC2c3c(OC(C)=O)c(C)c4c(c3C(COC1=O)N1C(O)C3Cc5cc(C)c(OC)c(O)c5C(C21)N3C)OCO4 | < 5.00 | > 7.50 | > 7.50 | > 7.50 | > 7.50 | 91.6% | 85% | 88.3% | 95.7% | 90.9% | 82.9% | 39.9% | 42.6% | 43.9% | 31.1% | 32.4% | 50.6% | 13.2% | 6.14% | 8.15% | viability, T/C [16]: 5.96%; viability, T/C [17]: 6.6%; viability, T/C [18]: 7.13%; viability, T/C [19]: 6.97%; viability, T/C [20]: 6.88%; viability, T/C [21]: 8.11%; viability, T/C [22]: 6.65%; viability, T/C [23]: 6.56%; viability, T/C [24]: 6.23%; viability, T/C [25]: 0.23%; viability, T/C [26]: 0.35%; viability, T/C [27]: 0.34%; viability, T/C [28]: 0.86%; viability, T/C [29]: 0.34%; viability, T/C [30]: 0.93%
Cc1cc(C)c(CNC(=O)c2cc(-c3ccc(CN4CCOCC4)cc3)cc3c2cnn3C2CCCC2)c(=O)[nH]1 + COc1cc2c(cc1O)CCNC21CSC2c3c(OC(C)=O)c(C)c4c(c3C(COC1=O)N1C(O)C3Cc5cc(C)c(OC)c(O)c5C(C21)N3C)OCO4 | < 5.00 | > 7.50 | > 7.50 | > 7.50 | > 7.50 | 90.3% | 100% | 92.1% | 78.7% | 83.1% | 56.2% | 24% | 26.2% | 37.6% | 25.5% | 40.4% | 32.2% | 6.57% | 8.67% | 7.48% | viability, T/C [16]: 8.65%; viability, T/C [17]: 11.9%; viability, T/C [18]: 6.02%; viability, T/C [19]: 6.46%; viability, T/C [20]: 7.33%; viability, T/C [21]: 6.11%; viability, T/C [22]: 6.61%; viability, T/C [23]: 7.09%; viability, T/C [24]: 4.83%; viability, T/C [25]: 0.34%; viability, T/C [26]: 0.8%; viability, T/C [27]: 0.7%; viability, T/C [28]: 1.08%; viability, T/C [29]: 0.44%; viability, T/C [30]: 0.8%
[2H]c1nc(C)nc([2H])c1-c1cc(NC[C@@H](C)c2cccc3c(C(=O)NC)ccnc23)ncn1 + COc1cc2c(cc1O)CCNC21CSC2c3c(OC(C)=O)c(C)c4c(c3C(COC1=O)N1C(O)C3Cc5cc(C)c(OC)c(O)c5C(C21)N3C)OCO4 | < 5.00 | > 7.50 | > 7.50 | > 7.50 | > 7.50 | 89.5% | 82.5% | 71.9% | 66.6% | 76.8% | 79.7% | 20.4% | 32.3% | 38.6% | 28.9% | 22.1% | 29.2% | 6.45% | 6.02% | 6.77% | viability, T/C [16]: 8.36%; viability, T/C [17]: 6.88%; viability, T/C [18]: 7.14%; viability, T/C [19]: 7.69%; viability, T/C [20]: 7.59%; viability, T/C [21]: 6.74%; viability, T/C [22]: 6.63%; viability, T/C [23]: 6.53%; viability, T/C [24]: 7.49%; viability, T/C [25]: 0.31%; viability, T/C [26]: 0.58%; viability, T/C [27]: 0.16%; viability, T/C [28]: 0.86%; viability, T/C [29]: 0.13%; viability, T/C [30]: 0.24%
